Experiment [1] concerns human ES motor neurons carrying the ALS-causing SOD1^A4V mutation. The experiment in a line: cells. The conditions noted are these: 72 h, 72 h; for EC50 / Emax: CPA 33 μM; for EC50: read-out: EC50; for viability at 1 µM: CPA (33 μM) + compound (1 μM), read-out: Motor Neuron Survival, % untreated; for Emax: read-out: Emax (MN survival % untreated). The experiment is classed as cell-based. The procedure:
Next, survival assays were performed with all the analogs at once to generate a low-variability dataset. All compounds were evaluated at concentrations ranging from 0.1-3.0 μM (five-point dilution) in three technical replicates and two biological replicates.

Experiment [2] deals with T1, MLK3/MAP3K11 (Homo sapiens, UniProt Q16584).
T1 construct: purchased Reaction Biology Corp
T1 sequence (Q16584 whole entry): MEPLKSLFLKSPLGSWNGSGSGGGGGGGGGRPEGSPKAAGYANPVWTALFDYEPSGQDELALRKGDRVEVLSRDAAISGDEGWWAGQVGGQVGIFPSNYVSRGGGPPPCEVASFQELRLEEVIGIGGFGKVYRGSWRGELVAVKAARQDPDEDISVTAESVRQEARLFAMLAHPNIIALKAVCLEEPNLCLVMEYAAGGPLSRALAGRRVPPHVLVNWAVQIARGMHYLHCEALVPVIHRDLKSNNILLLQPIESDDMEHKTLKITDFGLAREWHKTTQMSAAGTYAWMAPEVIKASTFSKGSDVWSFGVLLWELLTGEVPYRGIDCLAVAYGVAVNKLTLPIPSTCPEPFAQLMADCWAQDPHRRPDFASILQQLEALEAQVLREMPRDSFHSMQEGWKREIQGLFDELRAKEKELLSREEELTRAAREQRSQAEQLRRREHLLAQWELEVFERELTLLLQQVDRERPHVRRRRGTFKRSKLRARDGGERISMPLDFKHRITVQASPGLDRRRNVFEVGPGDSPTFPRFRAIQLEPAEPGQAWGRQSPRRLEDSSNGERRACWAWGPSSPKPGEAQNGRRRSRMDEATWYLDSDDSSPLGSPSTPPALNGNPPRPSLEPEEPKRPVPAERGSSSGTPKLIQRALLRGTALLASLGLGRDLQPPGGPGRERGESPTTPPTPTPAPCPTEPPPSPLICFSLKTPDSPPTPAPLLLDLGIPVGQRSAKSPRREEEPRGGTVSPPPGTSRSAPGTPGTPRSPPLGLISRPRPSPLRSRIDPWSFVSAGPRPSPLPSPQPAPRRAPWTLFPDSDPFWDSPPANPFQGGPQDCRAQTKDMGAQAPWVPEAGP
The experiment in a line: Radiolabeled ATP kinase assay (Reaction Biology Corp.), MLK3. The experiment is classed as biochemical. To be noted: for % Enzyme Activity Remaining (relative to DMSO controls), MLK3/MAP3K11, Data 1 / % Enzyme Activity Remaining (relative to DMSO controls), MLK3/MAP3K11, Data 2: [Cmpd] 0.1 μM, 10 μM ATP. The procedure:
(§1) Meanwhile, the same analogs were analyzed in a radiolabeled ATP assay (10 μM ATP; Reaction Biology Corp.) to compare the extent to which they could inhibit the activity of HGK, MLK1, or MLK3 in a cell-free environment (Table S3 and S4).

Experiment [3] concerns the target T2, panel of 60 human kinases (Homo sapiens, UniProt O75460).
T2 construct: purchased Reaction Biology Corp
The experiment in a line: Radiolabeled ATP kinase assay, panel of 60 kinases (Table S5). The conditions noted are these: ERN1/IRE1; 0.1 μM; 10 μM ATP; read-out: % Enzyme Activity (relative to DSMO controls). The format is biochemical. Here is the method: (§2) To better understand the biologically relevant targets of compound 1 and its analogs, a second round of cell-free kinase assays was performed. In this expanded assay, we selected ten analogs ranging from moderately to very strongly protective in the CPA assay. These analogs were evaluated for their ability to inhibit a selection of 60 kinases at 0.1 μM and 0.5 μM. […] RNAseq data were used to confirm the expression of each kinase in ES MNs (see Example 12).
(§3) RNAseq data were used to confirm the expression of each kinase in ES motor neurons (see Example 12).

In experiment [4] the target is T3, panel of 60 human kinases (Homo sapiens, UniProt P11362).
T3 construct: purchased Reaction Biology Corp
The description is as above. The experiment is classed as biochemical. The conditions noted are these: FGFR1; 0.1 μM; 10 μM ATP; read-out: % Enzyme Activity (relative to DSMO controls). Here is the method: as §2, §3

Experiment [5] concerns the target T4, panel of 60 human kinases (Homo sapiens, UniProt P49759).
T4 construct: purchased Reaction Biology Corp
The experiment is described as above. The experiment is classed as biochemical. The conditions noted are these: CLK1; 0.1 μM; 10 μM ATP; read-out: % Enzyme Activity (relative to DSMO controls). The procedure: as §2, §3

Experiment [6] concerns the target T5, panel of 60 human kinases (Homo sapiens, UniProt P49760).
T5 construct: purchased Reaction Biology Corp
Described as above. The format is biochemical. To be noted: CLK2; 0.1 μM; 10 μM ATP; read-out: % Enzyme Activity (relative to DSMO controls). Here is the method:
as §2, §3

Experiment [7] has as its target T6, panel of 60 human kinases (Homo sapiens, UniProt P49840).
T6 construct: purchased Reaction Biology Corp
The experiment is described as above. The experiment is classed as biochemical. The conditions noted are these: GSK3a; 0.1 μM; 10 μM ATP; read-out: % Enzyme Activity (relative to DSMO controls). Here is the method:
as §2, §3

The target in experiment [8] is T7, panel of 60 human kinases (Homo sapiens, UniProt P49841).
T7 construct: purchased Reaction Biology Corp
T7 sequence (P49841 whole entry): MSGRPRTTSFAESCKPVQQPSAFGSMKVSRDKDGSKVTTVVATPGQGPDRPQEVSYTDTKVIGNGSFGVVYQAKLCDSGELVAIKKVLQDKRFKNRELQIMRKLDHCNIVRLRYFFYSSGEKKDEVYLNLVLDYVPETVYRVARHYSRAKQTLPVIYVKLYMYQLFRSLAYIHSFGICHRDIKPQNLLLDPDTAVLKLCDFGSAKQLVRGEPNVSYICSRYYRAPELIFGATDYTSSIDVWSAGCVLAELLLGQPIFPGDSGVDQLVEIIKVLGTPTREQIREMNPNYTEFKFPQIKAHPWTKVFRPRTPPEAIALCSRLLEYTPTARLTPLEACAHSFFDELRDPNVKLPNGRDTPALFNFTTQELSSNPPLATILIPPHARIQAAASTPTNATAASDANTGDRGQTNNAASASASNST
The experiment is described as above. The experiment is classed as biochemical. To be noted: GSK3b; 0.1 μM; 10 μM ATP; read-out: % Enzyme Activity (relative to DSMO controls). Here is the method: as §2, §3

The target in experiment [9] is T8, panel of 60 human kinases (Homo sapiens, UniProt P53779).
T8 construct: purchased Reaction Biology Corp
The description is as above. The experiment is classed as biochemical. To be noted: JNK3; 0.1 μM; 10 μM ATP; read-out: % Enzyme Activity (relative to DSMO controls). Here is the method:
as §2, §3

For experiment [10], the target named is T9, panel of 60 human kinases (Homo sapiens, UniProt Q00526).
T9 construct: purchased Reaction Biology Corp
T9 sequence (Q00526 whole entry): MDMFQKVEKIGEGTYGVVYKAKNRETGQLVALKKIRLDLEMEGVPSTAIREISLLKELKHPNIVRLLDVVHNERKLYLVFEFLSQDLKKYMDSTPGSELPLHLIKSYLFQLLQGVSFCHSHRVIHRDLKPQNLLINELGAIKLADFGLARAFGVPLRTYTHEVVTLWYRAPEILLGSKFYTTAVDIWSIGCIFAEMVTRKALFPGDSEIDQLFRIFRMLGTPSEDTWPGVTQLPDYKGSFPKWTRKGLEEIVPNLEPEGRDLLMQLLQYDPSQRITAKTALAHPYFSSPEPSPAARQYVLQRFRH
The description is as above. The format is biochemical. To be noted: CDK3/cyclin E; 0.1 μM; 10 μM ATP; read-out: % Enzyme Activity (relative to DSMO controls). Here is the method: as §2, §3

The target of experiment [11] is T10, panel of 60 human kinases (Homo sapiens, UniProt Q00535).
T10 construct: purchased Reaction Biology Corp
T10 sequence (Q00535 whole entry): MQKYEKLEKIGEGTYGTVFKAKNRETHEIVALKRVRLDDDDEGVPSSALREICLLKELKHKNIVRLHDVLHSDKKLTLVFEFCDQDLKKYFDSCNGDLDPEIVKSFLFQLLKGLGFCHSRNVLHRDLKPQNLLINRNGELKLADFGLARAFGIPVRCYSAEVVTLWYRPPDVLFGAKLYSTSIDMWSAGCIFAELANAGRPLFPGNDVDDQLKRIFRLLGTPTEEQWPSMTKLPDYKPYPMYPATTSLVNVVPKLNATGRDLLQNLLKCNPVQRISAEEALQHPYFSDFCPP
The description is as above. The format is biochemical. The conditions noted are these: 0.1 μM, 10 μM ATP, read-out: % Enzyme Activity (relative to DSMO controls). Here is the method:
as §2, §3

Experiment [12] concerns the target T11, panel of 60 human kinases (Homo sapiens, UniProt Q00536).
T11 construct: purchased Reaction Biology Corp
The experiment is described as above. The format is biochemical. To be noted: CDK16/cyclin Y (PCTAIRE); 0.1 μM; 10 μM ATP; read-out: % Enzyme Activity (relative to DSMO controls). Here is the method: as §2, §3

In experiment [13] the target is T12, panel of 60 human kinases (Homo sapiens, UniProt Q07002).
T12 construct: purchased Reaction Biology Corp
T12 sequence (Q07002 whole entry): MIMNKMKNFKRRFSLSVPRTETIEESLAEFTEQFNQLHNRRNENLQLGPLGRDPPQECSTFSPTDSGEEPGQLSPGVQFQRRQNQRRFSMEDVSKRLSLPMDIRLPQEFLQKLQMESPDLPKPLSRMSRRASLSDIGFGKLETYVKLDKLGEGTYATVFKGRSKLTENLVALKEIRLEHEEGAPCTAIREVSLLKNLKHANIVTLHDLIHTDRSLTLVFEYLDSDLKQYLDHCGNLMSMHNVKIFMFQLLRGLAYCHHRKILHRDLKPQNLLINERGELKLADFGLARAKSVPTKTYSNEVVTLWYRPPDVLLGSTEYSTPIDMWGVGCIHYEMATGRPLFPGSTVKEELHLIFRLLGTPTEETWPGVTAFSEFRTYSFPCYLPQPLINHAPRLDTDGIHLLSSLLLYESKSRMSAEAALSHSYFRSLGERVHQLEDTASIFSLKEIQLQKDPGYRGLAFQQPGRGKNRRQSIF
Described as above. The format is biochemical. The conditions noted are these: CDK18/cyclin Y (PCTK3); 0.1 μM; 10 μM ATP; read-out: % Enzyme Activity (relative to DSMO controls). Here is the method:
as §2, §3

The target in experiment [14] is T13, panel of 60 human kinases (Homo sapiens, UniProt Q96GD4).
T13 construct: purchased Reaction Biology Corp
T13 sequence (Q96GD4 whole entry): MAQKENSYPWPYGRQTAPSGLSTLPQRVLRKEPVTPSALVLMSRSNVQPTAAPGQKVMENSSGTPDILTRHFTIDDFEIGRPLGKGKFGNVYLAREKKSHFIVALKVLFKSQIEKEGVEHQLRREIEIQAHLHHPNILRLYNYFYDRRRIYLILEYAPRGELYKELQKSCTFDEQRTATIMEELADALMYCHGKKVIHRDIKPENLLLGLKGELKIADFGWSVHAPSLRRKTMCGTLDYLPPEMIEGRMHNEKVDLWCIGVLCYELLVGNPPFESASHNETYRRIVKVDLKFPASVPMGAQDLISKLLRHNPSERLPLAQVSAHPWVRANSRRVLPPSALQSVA
The experiment is described as above. The format is biochemical. To be noted: Aurora B; 0.1 μM; 10 μM ATP; read-out: % Enzyme Activity (relative to DSMO controls). The procedure:
as §2, §3

Experiment [15] addresses T14, panel of 60 human kinases (Homo sapiens, UniProt Q9UM73).
T14 construct: purchased Reaction Biology Corp
The description is as above. The format is biochemical. The conditions noted are these: ALK; 0.1 μM; 10 μM ATP; read-out: % Enzyme Activity (relative to DSMO controls). The procedure:
as §2, §3

The target in experiment [16] is HGK/MAP4K4 (Homo sapiens, UniProt O95819). The experiment in a line: Radiolabeled ATP kinase assay (Reaction Biology Corp.), HGK. To be noted: 10 μM ATP, read-out: % Enzyme Activity (relative to DMSO controls), HGK/MAP4K4, Data 1; for remaining activity at 0.025 µM: [Cmpd] 0.025 μM; for remaining activity at 0.1 µM: [Cmpd] 0.1 μM. On the set-up: purchased Reaction Biology Corp. The experiment is classed as biochemical. The procedure: as §1

Read-outs that look alike come from different tables or passages of the source.

T2 sequence (O75460 19-977): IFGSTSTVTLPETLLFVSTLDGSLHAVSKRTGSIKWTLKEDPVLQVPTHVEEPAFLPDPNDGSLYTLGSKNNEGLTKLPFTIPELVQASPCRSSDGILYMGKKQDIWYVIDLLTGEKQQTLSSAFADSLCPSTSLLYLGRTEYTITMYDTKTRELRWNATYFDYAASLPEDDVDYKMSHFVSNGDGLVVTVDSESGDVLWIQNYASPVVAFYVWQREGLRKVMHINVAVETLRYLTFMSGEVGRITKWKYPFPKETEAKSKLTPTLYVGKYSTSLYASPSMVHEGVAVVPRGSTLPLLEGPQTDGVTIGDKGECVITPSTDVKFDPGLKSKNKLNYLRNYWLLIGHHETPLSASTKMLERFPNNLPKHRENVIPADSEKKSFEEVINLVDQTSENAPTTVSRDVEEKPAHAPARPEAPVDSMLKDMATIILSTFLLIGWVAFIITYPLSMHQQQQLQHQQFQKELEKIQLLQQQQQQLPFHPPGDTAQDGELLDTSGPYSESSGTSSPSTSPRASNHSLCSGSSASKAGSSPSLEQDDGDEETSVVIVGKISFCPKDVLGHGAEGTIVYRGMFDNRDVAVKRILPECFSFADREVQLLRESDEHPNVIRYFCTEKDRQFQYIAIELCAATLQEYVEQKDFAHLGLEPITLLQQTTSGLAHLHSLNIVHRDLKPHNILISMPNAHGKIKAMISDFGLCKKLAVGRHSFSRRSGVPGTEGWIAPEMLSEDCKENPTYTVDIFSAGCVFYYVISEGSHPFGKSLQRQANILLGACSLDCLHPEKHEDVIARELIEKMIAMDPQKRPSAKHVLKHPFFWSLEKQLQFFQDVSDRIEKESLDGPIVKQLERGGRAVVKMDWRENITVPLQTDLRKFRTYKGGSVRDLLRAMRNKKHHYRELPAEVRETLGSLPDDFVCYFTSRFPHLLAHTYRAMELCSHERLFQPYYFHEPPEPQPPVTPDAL
T6 sequence (P49840 whole entry): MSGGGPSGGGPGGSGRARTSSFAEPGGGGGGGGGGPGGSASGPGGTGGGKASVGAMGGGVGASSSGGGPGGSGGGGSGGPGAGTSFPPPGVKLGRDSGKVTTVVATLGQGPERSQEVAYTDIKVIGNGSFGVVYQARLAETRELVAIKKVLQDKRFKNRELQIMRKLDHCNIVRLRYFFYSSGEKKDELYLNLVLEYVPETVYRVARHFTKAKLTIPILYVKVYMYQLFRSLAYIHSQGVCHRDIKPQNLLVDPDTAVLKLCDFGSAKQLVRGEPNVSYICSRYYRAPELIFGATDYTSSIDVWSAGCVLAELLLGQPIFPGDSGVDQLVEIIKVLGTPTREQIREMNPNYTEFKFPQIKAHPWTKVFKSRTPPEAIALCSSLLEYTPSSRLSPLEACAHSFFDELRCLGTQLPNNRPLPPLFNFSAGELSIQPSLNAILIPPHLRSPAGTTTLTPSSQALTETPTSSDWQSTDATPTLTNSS
T4 sequence (P49759 whole entry): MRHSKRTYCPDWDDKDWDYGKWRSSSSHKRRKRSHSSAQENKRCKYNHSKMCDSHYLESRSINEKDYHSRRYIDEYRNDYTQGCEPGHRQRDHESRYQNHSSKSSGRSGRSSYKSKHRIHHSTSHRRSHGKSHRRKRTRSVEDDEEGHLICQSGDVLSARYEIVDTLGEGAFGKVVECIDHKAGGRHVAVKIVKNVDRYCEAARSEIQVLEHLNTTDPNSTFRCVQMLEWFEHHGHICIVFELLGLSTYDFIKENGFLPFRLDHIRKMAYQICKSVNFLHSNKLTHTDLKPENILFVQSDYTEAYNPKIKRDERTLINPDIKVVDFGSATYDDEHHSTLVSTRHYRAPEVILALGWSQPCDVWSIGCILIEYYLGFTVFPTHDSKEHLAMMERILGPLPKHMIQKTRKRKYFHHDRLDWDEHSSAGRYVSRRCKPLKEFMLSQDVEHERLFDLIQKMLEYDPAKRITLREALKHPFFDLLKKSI

In the case of `CN1CCN(Cc2ccc(-c3cnc4[nH]cc(-c5ccc6[nH]ccc6c5)c4c3)cc2)CC1` [Compound 1, 3-(1H-Indol-5-yl)-5-(4-((4-methylpiperazin-1-yl)methyl)phenyl)-1H-pyrrolo[2,3-b]pyridine, reference compound], the EC50 in experiment [1] (Homo sapiens, Neuron) stood at 215 nM. Further, the viability at 1 µM in [1] (Homo sapiens, Neuron) was 102%. In experiment [1] (Homo sapiens, Neuron), the Emax was 102%. Further, the remaining activity at 0.1 µM in experiment [2] (0.1 μM) was 10.5%; in experiment [3] it was 108%; in experiment [4], 82.7%; in experiment [5], 33%; in experiment [6], 22.8%; in experiment [7] it was 90.8%. Besides, the remaining activity at 0.1 µM in experiment [8] was determined as 100%; in [9], 122%; in [10], 89.1%; in [11] (CDK5/p25) it was 52.8%; in [11] (CDK5/p35) it was 52.3%; in experiment [12], 94.9%. Besides, the remaining activity at 0.1 µM in experiment [13] turned out to be 103%; in experiment [14] it was 88.8%; in experiment [15] it was 25.4%; in experiment [16], 5.23%. The remaining activity at 0.025 µM in [16] was determined as 18.5%.

Turning to `CN1CCN(Cc2ccc(-c3cnc4[nH]cc(-c5cccc(Cl)c5)c4c3)cc2)CC1` [Compound 7ad, 3-(3-Chlorophenyl)-5-(4-((4-methylpiperazin-1-yl)methyl)phenyl)-1H-pyrrolo[2,3-b]pyridine], in experiment [1] (Homo sapiens, Neuron), the EC50 was 285 nM. Besides, the viability at 1 µM in experiment [1] (Homo sapiens, Neuron) turned out to be 87.7%. For the same compound, in [1] (Homo sapiens, Neuron), the Emax is 87.7%. In addition, the “% Enzyme Activity Remaining (relative to DMSO controls), MLK3/MAP3K11, Data 1” value in experiment [2] was determined as 37.50%. Besides, the “% Enzyme Activity Remaining (relative to DMSO controls), MLK3/MAP3K11, Data 2” value in experiment [2] is on record as 38.21%. Also, the remaining activity at 0.1 µM in experiment [3] was found to be 102%; in experiment [4] it was 98.2%; in [5], 81.2%; in [6] it was 79.8%; in [7], 97.1%; in experiment [8], 98.1%. In addition, the remaining activity at 0.1 µM in experiment [9] turned out to be 106%; in [10] it was 95.5%; in experiment [11] (CDK5/p25) it was 84.4%; in experiment [11] (CDK5/p35), 83.9%; in [12] it was 96.9%; in experiment [13] it was 112%. Further, the remaining activity at 0.1 µM in [14] was found to be 91.8%; in experiment [15], 108%; in experiment [16], 2.92%. Moreover, the remaining activity at 0.025 µM in experiment [16] worked out at 8.51%.

Turning to `CN1CCN(Cc2ccc(-c3cnc4[nH]cc(-c5cnn(Cc6ccccc6)c5)c4c3)cc2)CC1` [Compound 7ah, 3-(1-Benzyl-1H-pyrazol-4-yl)-5-(4-((4-methylpiperazin-1-yl)methyl)phenyl)-1H-pyrrolo[2,3-b]pyridine], the EC50 in experiment [1] (Homo sapiens, Neuron) is 234 nM. In addition, in experiment [1] (Homo sapiens, Neuron), the viability at 1 µM amounted to 67.1%. The Emax in experiment [1] (Homo sapiens, Neuron) stood at 67.1%. Also, in experiment [2], the “% Enzyme Activity Remaining (relative to DMSO controls), MLK3/MAP3K11, Data 1” value is 32.02%. Further, the “% Enzyme Activity Remaining (relative to DMSO controls), MLK3/MAP3K11, Data 2” value in experiment [2] was determined as 32.11%. The remaining activity at 0.1 µM in [3] was 104%; in experiment [4], 91.4%; in experiment [5], 3.41%; in [6], 4.24%; in experiment [7], 32.5%; in experiment [8], 60.6%. Further, the remaining activity at 0.1 µM worked out at 81.8% in experiment [9]; 65.2% in experiment [10]; 52% in [11] (CDK5/p25); 46.3% in experiment [11] (CDK5/p35); 8.19% in experiment [12]; 16.1% in experiment [13]. In addition, the remaining activity at 0.1 µM in experiment [14] was determined as 69.9%; in experiment [15], 28.8%; in experiment [16], 3.56%. Moreover, the remaining activity at 0.025 µM in experiment [16] is 42.8%.

In the case of `Cc1nn(C)c(C)c1-c1c[nH]c2ncc(-c3ccc(CN4CCN(C)CC4)cc3)cc12` [Compound 7ai, 5-(4-((4-Methylpiperazin-1-yl)methyl)phenyl)-3-(1,3,5-trimethyl-1H-pyrazol-4-yl)-1H-pyrrolo[2,3-b]pyridine], the EC50 in experiment [1] (Homo sapiens, Neuron) worked out at 3230 nM. The Emax in experiment [1] (Homo sapiens, Neuron) worked out at 86.5%. Besides, the “% Enzyme Activity Remaining (relative to DMSO controls), MLK3/MAP3K11, Data 1” value in experiment [2] was determined as 93.11%. Besides, the “% Enzyme Activity Remaining (relative to DMSO controls), MLK3/MAP3K11, Data 2” value in experiment [2] was 88.00%. In addition, the remaining activity at 0.1 µM in experiment [3] amounted to 102%; in experiment [4] it was 97.5%; in experiment [5] it was 66.4%; in [6], 52.5%; in [7] it was 84.7%; in experiment [8] it was 94%. For the same compound, the remaining activity at 0.1 µM was 107% in experiment [9]; 96% in experiment [10]; 93.2% in experiment [11] (CDK5/p25); 87.9% in experiment [11] (CDK5/p35); 87.7% in [12]; 100% in [13]. Further, the remaining activity at 0.1 µM in experiment [14] is 99%; in experiment [15], 76.2%; in experiment [16] it was 106%. In addition, the remaining activity at 0.025 µM in [16] came to 105%.

Consider `OCCN1CCN(Cc2ccc(-c3cnc4[nH]cc(-c5cccc(Cl)c5)c4c3)cc2)CC1` [Compound 12k, 2-(4-(4-(3-(3-Chlorophenyl)-1H-pyrrolo[2,3-b]pyridin-5-yl)benzyl)piperazin-1-yl)ethan-1-ol], for which the EC50 was 100 nM in experiment [1] and 99 nM in experiment [1] (Homo sapiens, Neuron). In addition, the Emax in experiment [1] (Homo sapiens, Neuron) was determined as 112%.

The values are drawn from patent US12227500B2, “Substituted pyrrolo[2,3-b]pyridines for suppressing toxic endoplasmic reticulum stress” (THE TRUSTEES OF COLUMBIA UNIVERSITY IN THE CITY OF NEW YORK, priority 2018, dated 2025).
